Measurements from ChEMBL document CHEMBL4196088, “Induction of cell killing and autophagy by amphiphilic pyrrolidine derivatives on human pancreatic cancer cells” (Eur J Med Chem, 2018).
Values belong to the molecule of their own block, whether it stands above or below them. The source made the active and inactive calls. The rule behind the calls is not given here.

Columns and labels:
[1] = system: HeLa; assay: Growth inhibition of human HeLa cells after 72 hrs; type: functional, cell-based
[2] = system: PANC-1; assay: Induction of apoptosis in human PANC1 cells assessed as accumulation at sub-G0/G1 phase at 20 uM after 24 hrs by propidium iodide staining based flow cytometry (reference value: 0.6 to 0.7%); type: functional
[3] = system: PANC-1; assay: Induction of apoptosis in human PANC1 cells assessed as accumulation at sub-G0/G1 phase at 20 uM after 48 hrs by propidium iodide staining based flow cytometry (reference value: 0.2 to 2.9%); type: functional
[4] = system: PANC-1; assay: Induction of apoptosis in human PANC1 cells assessed as accumulation at sub-G0/G1 phase at 20 uM after 72 hrs by propidium iodide staining based flow cytometry (reference value: 1.6 to 3.2%); type: functional
[5] = system: PK9; assay: Induction of apoptosis in human PK9 cells assessed as accumulation at sub-G0/G1 phase at 20 uM after 24 hrs by propidium iodide staining based flow cytometry (reference value: 2.2%); type: functional
[6] = system: PK9; assay: Induction of apoptosis in human PK9 cells assessed as accumulation at sub-G0/G1 phase at 20 uM after 48 hrs by propidium iodide staining based flow cytometry (reference value: 3.8%); type: functional
[7] = system: PK9; assay: Induction of apoptosis in human PK9 cells assessed as accumulation at sub-G0/G1 phase at 20 uM after 72 hrs by propidium iodide staining based flow cytometry (reference value: 4%); type: functional
[8] = system: Fibroblast; assay: Induction of apoptosis in human primary fibroblasts at 20 uM after 24 hrs by propidium iodide staining based flow cytometry (reference value: 4.8%); type: cell-based
[9] = system: Fibroblast; assay: Induction of apoptosis in human primary fibroblasts at 20 uM after 48 hrs by propidium iodide staining based flow cytometry (reference value: 6.1%); type: cell-based
[10] = system: Fibroblast; assay: Induction of apoptosis in human primary fibroblasts at 20 uM after 72 hrs by propidium iodide staining based flow cytometry (reference value: 6.7%); type: cell-based
[11] = Induction of apoptosis in HPNE cells assessed as accumulation at sub-G0/G1 phase at 20 uM after 24 hrs by propidium iodide staining based flow cytometry (reference value: 0.6%); type: cell-based; details: human
[12] = Induction of apoptosis in HPNE cells assessed as accumulation at sub-G0/G1 phase at 20 uM after 48 hrs by propidium iodide staining based flow cytometry (reference value: 0.7%); type: cell-based; details: human
[13] = Induction of apoptosis in HPNE cells assessed as accumulation at sub-G0/G1 phase at 20 uM after 72 hrs by propidium iodide staining based flow cytometry (reference value: 6.6%); type: cell-based; details: human
[14] = system: PANC-1; assay: Induction of apoptosis in human PANC1 cells assessed as accumulation at sub-G0/G1 phase at 10 uM after 24 hrs by propidium iodide staining based flow cytometry (reference value: 0.6 to 0.7%); type: functional
[15] = system: PANC-1; assay: Induction of apoptosis in human PANC1 cells assessed as accumulation at sub-G0/G1 phase at 10 uM after 48 hrs by propidium iodide staining based flow cytometry (reference value: 0.2 to 2.9%); type: functional
[16] = system: PANC-1; assay: Induction of apoptosis in human PANC1 cells assessed as accumulation at sub-G0/G1 phase at 10 uM after 72 hrs by propidium iodide staining based flow cytometry (reference value: 1.6 to 3.2%); type: functional
[17] = system: PK9; assay: Induction of apoptosis in human PK9 cells assessed as accumulation at sub-G0/G1 phase at 10 uM after 24 hrs by propidium iodide staining based flow cytometry (reference value: 2.2%); type: functional
[18] = system: PK9; assay: Induction of apoptosis in human PK9 cells assessed as accumulation at sub-G0/G1 phase at 10 uM after 48 hrs by propidium iodide staining based flow cytometry (reference value: 3.8%); type: functional
[19] = system: PK9; assay: Induction of apoptosis in human PK9 cells assessed as accumulation at sub-G0/G1 phase at 10 uM after 72 hrs by propidium iodide staining based flow cytometry (reference value: 4%); type: functional
[20] = system: Fibroblast; assay: Induction of apoptosis in human primary fibroblasts assessed as accumulation at sub-G0/G1 phase at 10 uM after 24 hrs by propidium iodide staining based flow cytometry (reference value: 4.8%); type: cell-based
[21] = system: Fibroblast; assay: Induction of apoptosis in human primary fibroblasts assessed as accumulation at sub-G0/G1 phase at 10 uM after 48 hrs by propidium iodide staining based flow cytometry (reference value: 6.1%); type: cell-based
[22] = system: Fibroblast; assay: Induction of apoptosis in human primary fibroblasts assessed as accumulation at sub-G0/G1 phase at 10 uM after 72 hrs by propidium iodide staining based flow cytometry (reference value: 6.7%); type: cell-based
[23] = Induction of apoptosis in HPNE cells assessed as accumulation at sub-G0/G1 phase at 10 uM after 24 hrs by propidium iodide staining based flow cytometry (reference value: 0.6%); type: cell-based; details: human
[24] = Induction of apoptosis in HPNE cells assessed as accumulation at sub-G0/G1 phase at 10 uM after 48 hrs by propidium iodide staining based flow cytometry (reference value: 0.7%); type: cell-based; details: human
[25] = Induction of apoptosis in HPNE cells assessed as accumulation at sub-G0/G1 phase at 10 uM after 72 hrs by propidium iodide staining based flow cytometry (reference value: 6.6%); type: cell-based; details: human
[26] = system: SK-BR-3; assay: Growth inhibition of human SKBR3 cells at 20 uM after 72 hrs; type: functional, cell-based
[27] = system: PK9; assay: Growth inhibition of human PK9 cells at 20 uM after 72 hrs by MTT assay; type: functional, cell-based
[28] = system: PANC-1; assay: Growth inhibition of human PANC1 cells at 20 uM after 72 hrs; type: functional, cell-based
[29] = system: BXPC-3; assay: Induction of apoptosis in human BxPC3 cells assessed as accumulation at sub-G0/G1 phase at 20 uM after 24 hrs by propidium iodide staining based flow cytometry (reference value: 2.3%); type: functional
[30] = system: BXPC-3; assay: Induction of apoptosis in human BxPC3 cells assessed as accumulation at sub-G0/G1 phase at 20 uM after 48 hrs by propidium iodide staining based flow cytometry (reference value: 2.8%); type: functional
[31] = system: BXPC-3; assay: Induction of apoptosis in human BxPC3 cells assessed as accumulation at sub-G0/G1 phase at 20 uM after 72 hrs by propidium iodide staining based flow cytometry (reference value: 3.4%); type: functional
[32] = system: BXPC-3; assay: Induction of apoptosis in human BxPC3 cells assessed as accumulation at sub-G0/G1 phase harboring pSFFV-Bcl-XL at 20 uM after 24 hrs by propidium iodide staining based flow cytometry (reference value: 1.2%); type: functional
[33] = system: BXPC-3; assay: Induction of apoptosis in human BxPC3 cells assessed as accumulation at sub-G0/G1 phase harboring pSFFV-Bcl-XL at 20 uM after 48 hrs by propidium iodide staining based flow cytometry (reference value: 1.3%); type: functional
[34] = system: BXPC-3; assay: Induction of apoptosis in human BxPC3 cells assessed as accumulation at sub-G0/G1 phase harboring pSFFV-Bcl-XL at 20 uM after 72 hrs by propidium iodide staining based flow cytometry (reference value: 1.3%); type: functional
[35] = system: BXPC-3; assay: Induction of apoptosis in human BxPC3 cells assessed as accumulation at sub-G0/G1 phase at 10 uM after 24 hrs by propidium iodide staining based flow cytometry (reference value: 1.8%); type: functional
[36] = system: BXPC-3; assay: Induction of apoptosis in human BxPC3 cells assessed as accumulation at sub-G0/G1 phase at 10 uM after 48 hrs by propidium iodide staining based flow cytometry (reference value: 2.8%); type: functional
[37] = system: BXPC-3; assay: Induction of apoptosis in human BxPC3 cells assessed as accumulation at sub-G0/G1 phase at 10 uM after 72 hrs by propidium iodide staining based flow cytometry (reference value: 3.4%); type: functional
[38] = system: BXPC-3; assay: Induction of apoptosis in human BxPC3 cells harboring pSFFV-Bcl-XL assessed as accumulation at sub-G0/G1 phase at 10 uM after 24 hrs by propidium iodide staining based flow cytometry (reference value: 1.5%); type: functional
[39] = system: BXPC-3; assay: Induction of apoptosis in human BxPC3 cells harboring pSFFV-Bcl-XL assessed as accumulation at sub-G0/G1 phase at 10 uM after 48 hrs by propidium iodide staining based flow cytometry (reference value: 1.9%); type: functional
[40] = system: BXPC-3; assay: Induction of apoptosis in human BxPC3 cells harboring pSFFV-Bcl-XL assessed as accumulation at sub-G0/G1 phase at 10 uM after 72 hrs by propidium iodide staining based flow cytometry (reference value: 2%); type: functional

- IC50 [1]: 4.2 µM
SMILES: Cl.O[C@H]1CN[C@H](COCCCCCC/C=C/c2ccc(-c3ccccc3)cc2)C1
- Activity [2]: 16.1%
- Activity [3]: 36.9%
- Activity [4]: 54.2%
- Activity [5]: 26%
- Activity [6]: 66.6%
- Activity [7]: 71.5%
- Activity [8]: 58.9%
- Activity [9]: 75.4%
- Activity [10]: 73.7%
- Activity [11]: 69.6%
- Activity [12]: 92.1%
- Activity [13]: 92.6%
- Activity [14]: 9.6%
- Activity [15]: 29.3%
- Activity [16]: 47.9%
- Activity [17]: 6.9%
- Activity [18]: 10%
- Activity [19]: 13.5%
- Activity [20]: 14.6%
- Activity [21]: 19.8%
- Activity [22]: 54.5%
- Activity [23]: 44.4%
- Activity [24]: 78.5%
- Activity [25]: 93.6%

SMILES: CCCCCCCC/C=C\CCCCCCCCOC[C@@H]1[C@@H](O)[C@@H](O)CN1CCCC
- growth inhibition (GI) [26]: Active
- growth inhibition (GI) [27]: inactive
- growth inhibition (GI) [28]: inactive

SMILES: CCCCCCCC/C=C\CCCCCCCCOC[C@@H]1[C@@H](O)[C@@H](O)CN1C(C)C
- growth inhibition (GI) [26]: Active
- growth inhibition (GI) [27]: inactive
- growth inhibition (GI) [28]: inactive

SMILES: CCCCCCCC/C=C\CCCCCCCCOC[C@@H]1[C@@H](O)[C@@H](O)CN1C(N)=O
- growth inhibition (GI) [26]: Active
- growth inhibition (GI) [27]: inactive
- growth inhibition (GI) [28]: inactive

SMILES: CCCCCCCC/C=C\CCCCCCCCOC[C@@H]1[C@@H](O)[C@@H](O)CN1C
- growth inhibition (GI) [26]: Active
- growth inhibition (GI) [27]: inactive
- growth inhibition (GI) [28]: inactive

SMILES: CCCCCCCC/C=C\CCCCCCCCOC[C@@H]1[C@@H](O)[C@@H](O)CN1Cc1ccccc1
- growth inhibition (GI) [26]: Active
- growth inhibition (GI) [27]: inactive
- growth inhibition (GI) [28]: inactive

SMILES: CCCCCCCC/C=C\CCCCCCCCOC[C@@H]1[C@@H](O)[C@@H](O)CN1C(C)=O
- growth inhibition (GI) [26]: Active
- growth inhibition (GI) [27]: inactive
- growth inhibition (GI) [28]: inactive

- IC50 [1]: 3.9 µM
SMILES: Cl.O[C@H]1CN[C@H](COCCCCCCCC/C=C/c2ccc(Oc3ccccc3)cc2)C1
- Activity [2]: 14.7%
- Activity [3]: 33.7%
- Activity [4]: 43.8%
- Activity [5]: 30.1%
- Activity [6]: 46.5%
- Activity [7]: 48.7%
- Activity [8]: 40.1%
- Activity [9]: 74.8%
- Activity [10]: 72.7%
- Activity [11]: 66.6%
- Activity [12]: 87.5%
- Activity [13]: 94.3%
- Activity [14]: 12.9%
- Activity [15]: 21.8%
- Activity [16]: 28.2%
- Activity [17]: 3.5%
- Activity [18]: 7.4%
- Activity [19]: 6.9%
- Activity [20]: 9.1%
- Activity [21]: 6.5%
- Activity [22]: 8.1%
- Activity [23]: 42.8%
- Activity [24]: 72.9%
- Activity [25]: 85.9%

- IC50 [1]: 3.6 µM
SMILES: Cl.O[C@H]1CN[C@H](COCCCCCCCCC/C=C/c2ccc(Oc3ccccc3)cc2)C1
- Activity [2]: 8.9%
- Activity [3]: 49.5%
- Activity [4]: 56.1%
- Activity [5]: 20.6%
- Activity [6]: 23.1%
- Activity [7]: 27.8%
- Activity [8]: 75.1%
- Activity [9]: 87.9%
- Activity [10]: 82.1%
- Activity [11]: 62.4%
- Activity [12]: 86.8%
- Activity [13]: 91.2%
- Activity [14]: 11.5%
- Activity [15]: 25.3%
- Activity [16]: 35.1%
- Activity [17]: 4.3%
- Activity [18]: 10.8%
- Activity [19]: 5.4%
- Activity [20]: 9.8%
- Activity [21]: 6.6%
- Activity [22]: 6.5%
- Activity [23]: 67.1%
- Activity [24]: 86.1%
- Activity [25]: 88%

SMILES: CCCCCCCC/C=C\CCCCCCCCOCC[C@H]1NC[C@H](O)[C@@H]1O
- Activity [29]: 17.7%
- Activity [30]: 32.5%
- Activity [31]: 46.2%
- Activity [32]: 2.3%
- Activity [33]: 3.4%
- Activity [34]: 4.1%
- Activity [2]: 5%
- Activity [3]: 13.6%
- Activity [4]: 22.6%
- Activity [5]: 8.3%
- Activity [6]: 30.5%
- Activity [7]: 37.7%
- Activity [11]: 63.8%
- Activity [12]: 67.5%
- Activity [13]: 73%
- Activity [14]: 4.7%
- Activity [15]: 3.9%
- Activity [16]: 9.7%
- Activity [35]: 4.6%
- Activity [36]: 11.5%
- Activity [37]: 14.6%
- Activity [38]: 3%
- Activity [39]: 3.1%
- Activity [40]: 3.1%
- Activity [17]: 2.8%
- Activity [18]: 3.4%
- Activity [19]: 2.7%
- Activity [20]: 8.7%
- Activity [21]: 8.2%
- Activity [22]: 9.2%
- Activity [23]: 12.1%
- Activity [24]: 22.2%
- Activity [25]: 62.8%
